The text below walks through data of PubChem BioAssay (NCI).

Some test systems named below: OVCAR-5 ovarian; MDA-N; HT29 colon; SK-MEL-5 melanoma; MDA-MB-435; IGROV1 ovarian; RXF 393 renal; MCF7 breast; MDA-MB-231 breast; UACC-62 melanoma; SNB-19 CNS.
Common to all, as to test: NCI-60 cell line screen, 48 h

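Method: 48-hour compound exposure of cells in 96-well plates, five concentrations, linear interpolation of endpoints. At the TGI there is no net growth.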

For `Cc1cccc(CC(Cc2c(C)cccc2C(=O)O)C(=O)O)c1` (stereo not drawn), the TGI with OVCAR-5 ovarian was over 100 µM; in the experiment with MDA-N, over 100 µM; in the experiment with HT29 colon it was over 100 µM; in the experiment on SK-MEL-5 melanoma, 37.2 µM; in the experiment with MDA-MB-435, over 100 µM; in the experiment on IGROV1 ovarian, over 100 µM. In addition, the TGI with RXF 393 renal is over 100 µM; in the experiment on MCF7 breast it was over 100 µM; in the experiment with MDA-MB-231 breast, over 100 µM; in the experiment on UACC-62 melanoma it was 10.6 µM; in the experiment on SNB-19 CNS it was over 100 µM.

In the case of `CC1(C)CC(=O)C2=C(C1)NC1=C(C(=O)CC(C)(C)C1)C2c1ccc([N+](=O)[O-])cc1`, the TGI in the experiment on OVCAR-5 ovarian, with MDA-N, with HT29 colon, in the experiment on SK-MEL-5 melanoma, in the experiment on MDA-MB-435 and in the experiment with IGROV1 ovarian was over 100 µM in each case. For the same molecule, the TGI in the experiment with RXF 393 renal, in the experiment with MCF7 breast, with MDA-MB-231 breast, in the experiment with UACC-62 melanoma and in the experiment on SNB-19 CNS was over 100 µM each time.

For `Cc1ccc2c(n1)C(=O)C=CC2=O`, the TGI in the experiment on OVCAR-5 ovarian is 34.4 µM; with MDA-N it was 20.3 µM; in the experiment on HT29 colon, 38 µM; in the experiment with SK-MEL-5 melanoma it was 29.4 µM; with MDA-MB-435, 33 µM; with IGROV1 ovarian it was 29.3 µM. Moreover, the TGI with RXF 393 renal is 13.6 µM; with MCF7 breast it was 53.8 µM; with MDA-MB-231 breast, 19.5 µM; with UACC-62 melanoma, 29.2 µM; with SNB-19 CNS it was 34 µM.

With `N#CC(C#N)=C(N)/C(C#N)=C/c1ccc2ccccc2n1`, the TGI with OVCAR-5 ovarian is over 100 µM; in the experiment on MDA-N it was over 100 µM; in the experiment on HT29 colon it was 35.9 µM; in the experiment on SK-MEL-5 melanoma, 51 µM; in the experiment with MDA-MB-435, over 100 µM; with IGROV1 ovarian it was 38.2 µM. For the same molecule, the TGI in the experiment on RXF 393 renal is 42.1 µM; in the experiment with MCF7 breast it was over 100 µM; in the experiment on MDA-MB-231 breast, 72.5 µM; with UACC-62 melanoma, 45.9 µM; in the experiment with SNB-19 CNS, 77.7 µM.

Take `O=C(Nc1cc2c(=O)oc3ccccc3c2oc1=O)c1cccnc1`: the TGI in the experiment with OVCAR-5 ovarian, in the experiment on MDA-N, with HT29 colon, in the experiment with SK-MEL-5 melanoma, in the experiment with MDA-MB-435 and with IGROV1 ovarian was over 100 µM in each case. Further, the TGI in the experiment with RXF 393 renal, in the experiment on MCF7 breast, with MDA-MB-231 breast, in the experiment with UACC-62 melanoma and in the experiment with SNB-19 CNS was over 100 µM in each case.

Turning to `COc1cc(C2SC(N)=Nc3c2c(C)nn3C(=O)c2ccccc2O)ccc1O` (stereo not drawn), the TGI with OVCAR-5 ovarian is over 10 µM; in the experiment on MDA-N, over 10 µM; with HT29 colon, over 10 µM; with SK-MEL-5 melanoma, over 10 µM; with MDA-MB-435, over 10 µM; in the experiment with IGROV1 ovarian it was over 3.33 µM. In addition, the TGI in the experiment with RXF 393 renal, with MCF7 breast, in the experiment on MDA-MB-231 breast, in the experiment on UACC-62 melanoma and in the experiment on SNB-19 CNS was over 10 µM throughout.

In the case of `CCCCSC1=N/C(=C\c2ccc(N(C)C)cc2)C(NN)=N1`, the TGI with OVCAR-5 ovarian, with MDA-N, in the experiment on HT29 colon, in the experiment on MDA-MB-435, in the experiment on IGROV1 ovarian and in the experiment on RXF 393 renal was over 100 µM in each case. In addition, the TGI in the experiment on MCF7 breast, in the experiment with MDA-MB-231 breast, in the experiment on UACC-62 melanoma and with SNB-19 CNS was over 100 µM throughout.

Consider `C/C1=C/C(C)CC(C)OC(=O)C(C)NC(=O)C(Cc2ccc(O)c(I)c2)N(C)C(=O)C(C)NC(=O)C(C)C1` (stereo not drawn), for which the TGI in the experiment on OVCAR-5 ovarian was over 100 µM; in the experiment with MDA-N, 30.7 µM; with HT29 colon, over 40.7 µM; with SK-MEL-5 melanoma it was 11.7 µM; in the experiment on MDA-MB-435, 16 µM; in the experiment on IGROV1 ovarian, under 0.01 µM. Moreover, the TGI in the experiment with RXF 393 renal was under 0.0106 µM; in the experiment with MCF7 breast, over 100 µM; in the experiment with MDA-MB-231 breast it was 0.963 µM; in the experiment with UACC-62 melanoma, 15 µM; in the experiment on SNB-19 CNS it was over 100 µM.

`Nc1ncc(Cl)c(NCC2(CO)CC(CCc3ccccc3)C2)n1` (stereo not drawn): the TGI in the experiment on OVCAR-5 ovarian, in the experiment on MDA-N, in the experiment on HT29 colon, in the experiment with SK-MEL-5 melanoma, in the experiment on MDA-MB-435 and in the experiment with IGROV1 ovarian was over 100 µM in each case. Also, the TGI with RXF 393 renal, in the experiment on MCF7 breast, in the experiment on MDA-MB-231 breast, in the experiment on UACC-62 melanoma and in the experiment with SNB-19 CNS was over 100 µM in each case.

With `Cc1cc(N=Nc2c(O)ccc3ccccc23)ccc1N=Nc1cccc([N+](C)(C)C)c1`, the TGI in the experiment with OVCAR-5 ovarian is 60.8 µM; with MDA-N it was over 100 µM; in the experiment on HT29 colon, 25.1 µM; in the experiment on SK-MEL-5 melanoma, over 23.7 µM; in the experiment with MDA-MB-435, over 74.5 µM; in the experiment with IGROV1 ovarian, over 22.2 µM. The TGI is 48.7 µM in the experiment with RXF 393 renal; over 53.1 µM in the experiment with MCF7 breast; 55.3 µM in the experiment on MDA-MB-231 breast; over 61.6 µM in the experiment with UACC-62 melanoma; 26 µM in the experiment on SNB-19 CNS.

For `Cc1nc2c(nc1C)-c1c(c3c(n1C)C(=O)CCC3)C(=O)C2=O`, the TGI amounted to 2.72 µM in the experiment with OVCAR-5 ovarian; 0.322 µM in the experiment with MDA-N; 3.89 µM in the experiment with HT29 colon; 0.844 µM in the experiment on SK-MEL-5 melanoma; 0.353 µM in the experiment with MDA-MB-435; 1.48 µM with IGROV1 ovarian. Also, the TGI came to 0.474 µM in the experiment on RXF 393 renal; 0.358 µM with MCF7 breast; 0.803 µM in the experiment on MDA-MB-231 breast; 1.5 µM in the experiment on UACC-62 melanoma; 2.82 µM in the experiment on SNB-19 CNS.

As for `COC(C(=O)C(O)C(C)O)C1CC2C=C3C=C(OC4CC(OC5CC(O)C(OC)C(C)O5)C(OC(C)=O)C(C)O4)C(C)C(=O)C3=C(O)C2=C(O)C1OC1CC(OC2CC(OC3CC(C)(O)C(OC(=O)C(C)C)C(C)O3)C(O)C(C)O2)C(O)C(C)O1` (stereo not drawn), the TGI in the experiment on MDA-N is under 0.01 µM; in the experiment on SK-MEL-5 melanoma, under 0.01 µM; with MDA-MB-435 it was under 0.01 µM; with IGROV1 ovarian it was over 100 µM; in the experiment on RXF 393 renal, under 0.01 µM; in the experiment with MCF7 breast it was over 100 µM. The TGI in the experiment on MDA-MB-231 breast and in the experiment on UACC-62 melanoma was under 0.01 µM throughout.
